Laboratory results taken from patent US20160263081A1, “ANTIPARASITIC AGENT” (NAI INC., priority 2013, published 2016).
Values joined by “and” are separate entries in the source; they are usually repeats but may differ in a detail not shown here. Equal values may be shown once. Read-outs that look alike come from different tables or passages of the source.

Experiments:
L. major promastigote [1] = conditions: cited from earlier work
L. donovani promastigote [2] = conditions: cited from earlier work
T. cruzi amastigote [3] = conditions: cited from earlier work
Ascaris suum complex II = Ascaris suum complex II (Ascaris suum, UniProt O44074+P92506+P92507); conditions: A. suum complex II; cited from earlier work
[4] = test system: Pseudomonas aeruginosa complex II; conditions: cited from earlier work
T. b. brucei complex II = assay type: biochemical, Trypanosoma brucei brucei
T. cruzi complex II = assay type: biochemical, Trypanosoma cruzi
[5] = test system: T. b. brucei bloodstream form; test: Proliferation by Alamar Blue method, T. b. brucei bloodstream form; assay type: cell-based; conditions: Trypanosoma brucei, read-out: Celluler IC50
Excerpt: (§1) Siccanin inhibits trypanosomatid and plasmodia complex II with IC50 values on the nM order. Based on this fact, the present inventors further measured the impact of siccanin on the proliferation of parasites (Table 3). The species of the organisms used in the present study were: nonpathogenic leishmanial protozoan L. tarentolae promastigote (insect form), cutaneous leishmaniasis pathogen L. major promastigote (insect form), visceral leishmaniasis pathogen L. donovani promastigote (insect form), related species of African sleeping sickness pathogen T. b. brucei bloodstream form, Chagas disease pathogen T. cruzi amastigote (cell form), and plasmodia P. falciparum erythrocytic stage (Table 3). T. b. brucei bloodstream form and T. cruzi amastigote correspond to the stages found in mammalian hosts and can be used as target forms in drug treatments for African trypanosomiasis and Chagas disease.
(§2) In the presence of 0.05 to 50 μM siccanin, the proliferation of L. tarentolae promastigote, L. donovani promastigote, L. major promastigote, and T. brucei bloodstream form was measured by Alamar Blue method. […] The growth inhibitory effect of siccanin on T. cruzi was evaluated by counting the T. cruzi amastigote population that infected mouse cells. As compared with DMSO control, the number of the protozoa decreased by 50% in the presence of 10 μM siccanin. […]

[6] = test system: T. mentagrophytes mitochondria; conditions: cited from earlier work
L. tarentolae complex II = assay type: biochemical, Leishmania tarentolae
P. falciparum complex II = assay type: biochemical, Plasmodium falciparum
[7] = biological target: T1, A. suum respiratory chain complex II (Ascaris suum, UniProt O44074+P92506+P92507); test: Lineweaver-Burk inhibition pattern, A. suum complex II; assay type: biochemical; conditions: for Ki: A. suum SQR activity, for quinone (decylubiquinone)
T1 construct: measured using A. suum imago complex II; from tissue; host or cells: adult (imago) Ascaris suum
Method: FIG. 1 is a graph which represents the inhibition pattern of siccanin against A. suum respiratory chain complex II.
(§3) In order to estimate the inhibitory mechanism of siccanin against complex II, the inhibitory pattern was determined by Lineweaver-Burk plot using succinate and quinone as the substrates. As samples for measurement, nematode complex II from A. suum and complex II from L. tarentolae, which is an easy-to-handle trypanosomatid, were used. […] The SDH activity is catalyzed by only subunits Fp and Ip of complex II and the quinone-binding domain is not essential for the reaction.

pig complex II [8] = biological target: T2, pig complex II (Sus scrofa, UniProt A5GZW8+D0VWV4+Q007T0); assay type: biochemical
L. major promastigote [9] = test: Proliferation by Alamar Blue method, L. major promastigote; assay type: cell-based; conditions: Leishmania major, read-out: Celluler IC50
Excerpt: as §1, §2

[10] = test system: Trychophyton spp., Epidermophyton floccosum, and Microsporium gypseum; conditions: cited from earlier work
T. cruzi amastigote [11] = test: Count of T. cruzi amastigotes infecting mouse cells; assay type: cell-based, Trypanosoma cruzi
Excerpt: as §1, §2

D. immitis complex II = assay type: biochemical, Dirofilaria immitis
T. mentagrophytes = conditions: glycol salicylate ointment containing 1% siccanin applied 3-8 days after infection, albino guinea pigs, N=20; cited from earlier work
[12] = test system: P. falciparum erythrocytic stage; test: P. falciparum proliferation by LDH assay; assay type: cell-based, Plasmodium falciparum; conditions: read-out: Celluler IC50
Excerpt: as §1, §2

pig complex II [13] = biological target: T2, pig complex II; conditions: Non-Patent Document 21; cited from earlier work
rat complex II = rat complex II (Rattus norvegicus, UniProt P21913+Q641Z9+Q6PCT8); conditions: cited from earlier work
L. donovani promastigote [14] = test: Proliferation by Alamar Blue method, L. donovani promastigote; assay type: cell-based; conditions: Leishmania donovani
Excerpt: as §1, §2

[15] = test system: L. tarentolae promastigote; test: Proliferation by Alamar Blue method, L. tarentolae promastigote; assay type: cell-based; conditions: Leishmania tarentolae, read-out: Celluler IC50
Excerpt: as §1, §2

[16] = biological target: T3, A. suum complex II SDH activity (Ascaris suum, UniProt O44074+P92506+P92507); test: Succinate dehydrogenase (SDH) reaction with PMS and MTT, A. suum complex II; assay type: biochemical; conditions: 50 μM siccanin
T3 construct: measured using A. suum imago complex II; from tissue; host or cells: adult (imago) Ascaris suum
Method: as §3

[17] = biological target: Escherichia coli complex II (Escherichia coli, UniProt P07014+P0AC44+P69054); conditions: cited from earlier work
A. simplex complex II = A. simplex complex II (Anisakis simplex, UniProt A0A0M3JRB2+A0A0M3KB13+A0A3P6RGD8); test: biochemical
H. contortus complex II = assay type: biochemical, Haemonchus contortus
[18] = test system: T. mentagrophytes respiratory chain complex II; conditions: cited from earlier work
[19] = biological target: T1, A. suum respiratory chain complex II; test: biochemical
[20] = test system: L. tarentolae complex II SDH activity; test: Succinate dehydrogenase (SDH) reaction with PMS and MTT, L. tarentolae complex II; assay type: biochemical, Leishmania tarentolae; conditions: 50 μM siccanin
Method: as §3

D. immitis microfilariae = assay type: cell-based, Dirofilaria immitis
[21] = biological target: L. tarentolae respiratory chain complex II; test: Lineweaver-Burk inhibition pattern, L. tarentolae complex II; assay type: biochemical, Leishmania tarentolae; conditions: for Ki: L. tarentolae SQR activity, for quinone (ubiquinone 1)
Method: FIG. 2 is a graph which represents the inhibition pattern of siccanin against L. tarentolae respiratory chain complex II.
as §3

[22] = complex II alone, read-out: Ki1
[23] = complex of complex II and ubiquinone, read-out: Ki2
[24] = A. suum complex II, Lineweaver-Burk plot

T1 sequence (Q33862 19-645 partner): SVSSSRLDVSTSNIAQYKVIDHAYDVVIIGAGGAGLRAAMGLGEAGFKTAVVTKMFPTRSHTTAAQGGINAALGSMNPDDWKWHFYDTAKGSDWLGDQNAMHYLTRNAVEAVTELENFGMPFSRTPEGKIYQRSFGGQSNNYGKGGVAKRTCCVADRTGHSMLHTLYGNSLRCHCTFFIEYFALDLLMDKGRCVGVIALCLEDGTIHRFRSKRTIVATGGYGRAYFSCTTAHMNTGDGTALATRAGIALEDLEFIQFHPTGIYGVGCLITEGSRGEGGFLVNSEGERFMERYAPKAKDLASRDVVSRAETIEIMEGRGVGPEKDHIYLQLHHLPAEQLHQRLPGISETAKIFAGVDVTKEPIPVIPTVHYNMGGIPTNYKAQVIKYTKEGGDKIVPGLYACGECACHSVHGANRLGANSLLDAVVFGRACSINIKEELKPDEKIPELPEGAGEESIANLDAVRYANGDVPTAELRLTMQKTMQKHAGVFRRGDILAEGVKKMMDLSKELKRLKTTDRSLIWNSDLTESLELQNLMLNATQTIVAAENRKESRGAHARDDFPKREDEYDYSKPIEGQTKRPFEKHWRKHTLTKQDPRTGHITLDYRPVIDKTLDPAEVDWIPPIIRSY
T1 sequence (O44074 22-282): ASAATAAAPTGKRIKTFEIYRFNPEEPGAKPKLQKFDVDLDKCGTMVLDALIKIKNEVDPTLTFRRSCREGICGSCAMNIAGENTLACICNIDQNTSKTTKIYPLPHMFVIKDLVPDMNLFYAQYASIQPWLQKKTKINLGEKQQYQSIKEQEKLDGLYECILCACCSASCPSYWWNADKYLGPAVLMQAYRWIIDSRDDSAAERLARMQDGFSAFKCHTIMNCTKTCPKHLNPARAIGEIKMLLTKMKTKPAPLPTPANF
T1 sequence (P92506 32-188): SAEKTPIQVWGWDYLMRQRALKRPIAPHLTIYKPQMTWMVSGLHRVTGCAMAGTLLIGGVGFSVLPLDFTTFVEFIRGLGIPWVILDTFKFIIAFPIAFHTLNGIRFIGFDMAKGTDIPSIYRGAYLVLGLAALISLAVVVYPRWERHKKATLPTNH
T1 sequence (P92507 26-156): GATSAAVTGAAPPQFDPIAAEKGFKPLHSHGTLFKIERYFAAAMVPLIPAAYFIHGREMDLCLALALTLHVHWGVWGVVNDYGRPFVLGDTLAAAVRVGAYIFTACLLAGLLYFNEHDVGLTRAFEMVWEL
T2 sequence (Q0QF01 43-664 partner): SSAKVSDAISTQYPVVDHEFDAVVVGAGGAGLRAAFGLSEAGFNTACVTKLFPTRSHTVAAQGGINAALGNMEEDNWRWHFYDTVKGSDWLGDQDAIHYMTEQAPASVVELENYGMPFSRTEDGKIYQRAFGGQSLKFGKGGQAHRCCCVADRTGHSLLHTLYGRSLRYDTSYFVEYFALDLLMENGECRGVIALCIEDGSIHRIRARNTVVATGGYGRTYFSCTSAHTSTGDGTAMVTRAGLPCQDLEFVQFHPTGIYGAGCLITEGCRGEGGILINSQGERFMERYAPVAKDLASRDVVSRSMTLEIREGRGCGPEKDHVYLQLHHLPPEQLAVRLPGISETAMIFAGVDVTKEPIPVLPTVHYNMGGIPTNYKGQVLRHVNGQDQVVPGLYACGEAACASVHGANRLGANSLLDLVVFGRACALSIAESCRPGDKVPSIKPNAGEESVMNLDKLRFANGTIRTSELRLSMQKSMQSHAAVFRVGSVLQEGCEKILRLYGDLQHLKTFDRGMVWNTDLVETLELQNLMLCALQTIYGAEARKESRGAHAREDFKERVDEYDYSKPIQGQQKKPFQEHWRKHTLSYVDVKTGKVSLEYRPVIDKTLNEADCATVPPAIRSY
T2 sequence (Q007T0 29-280): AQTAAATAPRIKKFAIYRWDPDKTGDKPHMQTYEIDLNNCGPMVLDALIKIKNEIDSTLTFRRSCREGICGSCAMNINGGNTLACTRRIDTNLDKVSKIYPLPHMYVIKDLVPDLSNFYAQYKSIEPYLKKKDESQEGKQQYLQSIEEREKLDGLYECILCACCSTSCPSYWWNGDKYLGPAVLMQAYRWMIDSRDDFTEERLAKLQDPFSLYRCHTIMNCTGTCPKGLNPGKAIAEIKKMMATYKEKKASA
T2 sequence (D0VWV4 30-169): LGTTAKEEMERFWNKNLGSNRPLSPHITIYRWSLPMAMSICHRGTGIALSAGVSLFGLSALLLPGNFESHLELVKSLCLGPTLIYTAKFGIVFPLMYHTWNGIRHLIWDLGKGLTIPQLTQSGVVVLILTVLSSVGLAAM
T2 sequence (A5GZW8 57-159 limits assumed): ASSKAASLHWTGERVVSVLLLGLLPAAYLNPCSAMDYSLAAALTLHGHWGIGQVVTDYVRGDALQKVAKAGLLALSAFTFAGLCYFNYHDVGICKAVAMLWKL
Sequence of A. simplex complex II (A0A0M3JRB2 24-279): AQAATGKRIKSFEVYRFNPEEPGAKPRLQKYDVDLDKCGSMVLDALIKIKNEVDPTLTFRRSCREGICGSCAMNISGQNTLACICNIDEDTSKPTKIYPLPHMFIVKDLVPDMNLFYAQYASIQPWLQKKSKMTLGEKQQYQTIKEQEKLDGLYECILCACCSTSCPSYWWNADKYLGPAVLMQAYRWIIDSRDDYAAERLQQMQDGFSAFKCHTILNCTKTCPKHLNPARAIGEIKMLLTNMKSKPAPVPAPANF
Sequence of A. simplex complex II (A0A3P6RGD8 1-99): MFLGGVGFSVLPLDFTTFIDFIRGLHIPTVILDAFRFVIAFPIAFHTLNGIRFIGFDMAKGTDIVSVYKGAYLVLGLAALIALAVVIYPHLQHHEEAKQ
Sequence of A. simplex complex II (A0A0M3KB13 31-157): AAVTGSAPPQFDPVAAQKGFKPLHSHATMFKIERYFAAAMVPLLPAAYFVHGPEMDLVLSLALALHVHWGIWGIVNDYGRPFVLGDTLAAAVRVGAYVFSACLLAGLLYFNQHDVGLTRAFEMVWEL
Sequence of A. simplex complex II (A0A0M3KCD2 1-354 partner): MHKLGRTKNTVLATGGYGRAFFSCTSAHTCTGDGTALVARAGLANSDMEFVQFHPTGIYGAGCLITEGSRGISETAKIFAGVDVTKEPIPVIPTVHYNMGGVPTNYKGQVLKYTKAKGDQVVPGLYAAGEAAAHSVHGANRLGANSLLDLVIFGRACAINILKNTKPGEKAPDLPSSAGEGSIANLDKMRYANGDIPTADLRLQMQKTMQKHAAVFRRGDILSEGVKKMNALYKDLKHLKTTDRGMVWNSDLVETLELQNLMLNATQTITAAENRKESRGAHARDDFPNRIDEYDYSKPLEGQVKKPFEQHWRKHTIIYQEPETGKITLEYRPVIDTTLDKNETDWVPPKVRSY
Sequence of Ascaris suum complex II (O44074 22-282): as the sequence (O44074 22-282) above
Sequence of Ascaris suum complex II (P92506 32-188): as the sequence (P92506 32-188) above
Sequence of Ascaris suum complex II (P92507 26-156): as the sequence (P92507 26-156) above
Sequence of Ascaris suum complex II (Q33862 19-645, further chain): as the sequence (Q33862 19-645 partner) above

C[C@@H]1[C@H](O)[C@@H](C)/C=C/C=C/C=C/C=C/C=C/C=C/C=C/[C@H](O[C@@H]2O[C@H](C)[C@@H](O)[C@H](N)[C@@H]2O)C[C@@H]2O[C@](O)(C[C@@H](O)C[C@@H](O)[C@H](O)CC[C@@H](O)C[C@@H](O)CC(=O)O[C@H]1C)C[C@H](O)[C@H]2C(=O)O [Amphotericin B]
IC50 (L. major promastigote [1]): ~43 nM
IC50 (L. donovani promastigote [2]): ~12 nM

O=C(Cn1ccnc1[N+](=O)[O-])NCc1ccccc1 [benznidazole]
IC50 (T. cruzi amastigote [3]): ~22000 nM

CC(C)Oc1cccc(NC(=O)c2ccccc2C(F)(F)F)c1 [flutolanil]
selectivity over pig complex II (Ascaris suum complex II): 800 fold

CCCCCCCCCCCCCCCCOP(=O)([O-])OCC[N+](C)(C)C [miltefosine]
IC50 (L. major promastigote [1]): ~13100 nM
IC50 (L. donovani promastigote [2]): ~450 nM

CC1CS(=O)(=O)CCN1/N=C/c1ccc([N+](=O)[O-])o1 (stereo not shown) [nifurtimox]
IC50 (T. cruzi amastigote [3]): ~3500 nM

Cc1cc(O)c2c(c1)O[C@@]1(C)CC[C@H]3C(C)(C)CCC[C@]34CO[C@@H]2[C@H]41 [siccanin]
IC50 ([4]; Pseudomonas aeruginosa complex II): 870 nM
inhibition mode against quinone ([4]; membrane fraction of Pseudomonas aeruginosa): mixed inhibition
Selectivity (T. b. brucei complex II): 3189 fold
IC50 (T. b. brucei complex II; read-out: SQR IC50): 370 nM
Selectivity (T. cruzi complex II): 718 fold
IC50 (T. cruzi complex II; read-out: SQR IC50): 1200 nM
IC50 [5]: 8300 nM
inhibition of NADH- or ascorbate-dependant oxygen consumption [6]: does not inhibit
Selectivity (L. tarentolae complex II): 4532 fold
IC50 (L. tarentolae complex II; read-out: SQR IC50): 190 nM
IC50 (P. falciparum complex II): 98 nM
Selectivity (P. falciparum complex II): 8675
Ki [7, 22]: 3 nM and 5.2 nM
Ki [7, 23]: 8.7 nM and 9.9 nM
inhibitory pattern for quinone [7, 24]: mixed inhibition
inhibitory pattern for succinate [7, 24]: non-competitive inhibition
Selectivity (pig complex II [8]): 1
IC50 (L. major promastigote [9]): 13000 nM
MIC [10]: 0.6 to 6.3 µg/mL
decrease in the number of the protozoa compared with DMSO control (T. cruzi amastigote [11]; 10 μM siccanin): 50%
IC50 (T. cruzi amastigote [11]; Trypanosoma cruzi, T. cruzi amastigote in mouse cells, read-out: Celluler IC50): 10000 nM
Selectivity (D. immitis complex II): 62391 fold
IC50 (D. immitis complex II; read-out: SQR IC50): 13.8 nM
subjects whose skin was completely cured (T. mentagrophytes): 85-100%
IC50 ([12]; Plasmodium falciparum): 15500 nM
IC50 [12]: 16000 nM
IC50 (pig complex II [13]): 861000 nM
IC50 (rat complex II): 9300 nM
IC50 (L. donovani promastigote [14]; read-out: Celluler IC50): 700 nM
IC50 (L. donovani promastigote [14]; read-out: IC50): 700 nM
IC50 [15]: 4400 nM
inhibition of SDH activity [16]: no inhibitory effects
IC50 [17]: 268000 nM
IC50 (A. simplex complex II): 11.2 nM
Selectivity (A. simplex complex II): 76875 fold
Selectivity (H. contortus complex II): 47308 fold
IC50 (H. contortus complex II; read-out: SQR IC50): 18.2 nM
IC50 [18]: 87 nM
IC50 [19]: 5.7 nM
Selectivity [19]: 180,000 fold
selectivity relative to the selectivity of flutolanil [19]: about 20 fold
inhibition of SDH activity [20]: no inhibitory effects
Motility (%) (D. immitis microfilariae; 5 μM, 0 hr): 100%
Motility (%) (D. immitis microfilariae; 5 μM, 24 hr): 75%
Motility (%) (D. immitis microfilariae; 5 μM, 48 hr): 50%
Motility (%) (D. immitis microfilariae; 50 μM, 0 hr): 25%
Motility (%) (D. immitis microfilariae; 50 μM, 24 hr): 0%
Motility (%) (D. immitis microfilariae; 50 μM, 48 hr): 0%
Ki [21, 22]: 39 nM
Ki [21, 23]: 102 nM
inhibitory pattern for quinone ([21]; L. tarentolae complex II, Lineweaver-Burk plot): mixed inhibition

ivermectin [reference compound]
Motility (%) (D. immitis microfilariae; 5 μM, 0 hr): 100%
Motility (%) (D. immitis microfilariae; 5 μM, 24 hr): 75%
Motility (%) (D. immitis microfilariae; 5 μM, 48 hr): 50%
Motility (%) (D. immitis microfilariae; 50 μM, 0 hr): 100%
Motility (%) (D. immitis microfilariae; 50 μM, 24 hr): 50%
Motility (%) (D. immitis microfilariae; 50 μM, 48 hr): 50%
